From US20020159969A1, “Small peptide-based therapeutics for reversing cancer-associated MUC-1 mucin-induced immunosuppression” (priority 1997, published 2002)

What was measured:
T-cells = assay: Relief of 100 mer MUC1 peptide-induced suppression/anergy of T-cell proliferation (allo-PBLs, 3H-thymidine incorporation); type: cell-based, human; conditions: 100 mer MUC1 peptide 25 μg/ml; 16 mer at varying doses; FIG. 3
Description: In the experiment of FIG. 3, purified T-cells (10^6/ml) were cultured in AIM V medium with allo-PBLs in the presence (100 mer MUC1 peptide group; right panel) or absence (media group; left panel) of 100 mer MUC1 synthetic peptide (25 μg/ml) for 6-7 days. At this time, the T-cells were harvested and plated in 96 well flat bottom plates at 10^5/well with allo-PBLs (10^5/well) in the presence or absence of 100 mer MUC1 peptide (25 μg/ml), and the 16 mer MUC1 peptide (less than one tandem repeat) at varying doses. The wells were pulsed with ^3H-thymidine (1 μCi/well) on the fourth day of culture followed by harvesting on the fifth day. ^3H-Thymidine incorporation into the DNA of proliferating T-cells was measured by liquid scintillation counter. Data are shown as mean CPM±standard deviations. Each group was set up in replicates of 3 wells.

T cells = assay: T cell proliferation assay with allo PBLs (3H-thymidine incorporation) with synthetic MUC-1 tandem repeat peptides; type: cell-based, human; conditions: peptide 10 μg/ml, 6-7 days then 5 days, FIG. 2
Description: Enriched T cell populations were purified from buffy coats obtained from normal red cross donors using nylon wool columns by previously reported procedures. […] For the allo MLR, mitomycin C treated allogeneic PBLs were co-cultured with purified T cells in the presence or absence of affinity purified MUC-1 mucin or control OSM. In most of the experiments, the T cells were cultured 6-7 days in AIM V medium in the absence or presence of MUC-1, MUC-1 derivative or OSM at the indicated concentration. After this time, the T cells were harvested, washed and cultured as indicated.
For the experiment depicted in FIG. 2, purified T cells (10^6/ml) were cultured in AIM V medium with allo PBLs in the absence or presence of MUC-1, MUC-1 derivative or OSM 10 μg/ml for 6-7 days. T cells were harvested and plated in 96 well flat bottom plates at 10^5/well with allo PBLs (10^5/well), in the presence or absence of affinity purified MUC-1, MUC-1 derivative or OSM. Control cultures were treated with either 50 U/ml IL-2 or 1 μg/ml anti-CD28 Mab. After 4 days of culture, ^3H-thymidine (1 μCi/well) was added. The cells were harvested on the fifth day and ^3H-thymidine incorporation was measured by liquid scintillation.

human T-cell cultures = assay: Mixed lymphocyte reaction / T-cell proliferation (3H-thymidine incorporation) with affinity purified MUC-1 mucin; type: cell-based; conditions: purified MUC-1 mucin added to human T-cell cultures; FIG. 1
Description: The mixed lymphocyte reaction is conducted by mixing the lymphocytes of HLA disparate individuals in in vitro tissue cultures. The “responder population” in this experiment is purified T-cells from one population, while the “stimulator” population in this experiment is the peripheral blood lymphocytes obtained from an HLA mismatched individual donor. The two cell populations were mixed and cultured either in the presence or absence of various doses of B27.29 affinity purified MUC-1 mucin that was purified from a pleural effusion fluid. The results of this experiment are depicted in FIG. 1.
In the experiment depicted in FIG. 1, 10^6 T-cells were cultured in AIM V medium in presence of 10^6 allo-PBLs (mitomycin C treated) with or without the indicated concentration of affinity purified MUC1 or OSM for 6-7 days. At this time the T-cells were harvested and plated at 10^5/well in 96 well flat bottom plates and the polyclonal stimuli allo-PBLs (10^5/well), or anti-CD3 (1 μg/ml) or PHA (0.2 μg/ml), in presence or absence of MUC1 or OSM for 4 days. Each group was set up in a replicate of five wells. ^3H-thymidine (1 μCi/well) was added and the culture plates were further incubated for 18-24 h before harvesting. ^3H-thymidine incorporation into the DNA of proliferating T-cells was measured by liquid scintillation counting. […]

Substance | reversal of suppression/anergy induced by a MUC-1 100-mer peptide (T-cells) | level of T cell proliferation relative to control (T cells) | T-cell proliferation against allo-antigenic (or mitogenic) stimulus in vitro (human T-cell cultures)
GVTSAPDTRPAPGSTA [BP16] | reverses | not observed | –
purified human MUC-1 mucin: B27.29 affinity purified MUC-1 mucin glycoprotein from cancer patient pleural effusion/ascites fluid | – | – | strongly inhibits
